± gives the expanded uncertainty stated by the source.
Settings: Fluid (supercritical or subcritical phases), Bellows volumetry

Q: With `CC(C)C` [2-methylpropane] as the compound, how does the mass density (360 K, 50000 kPa) read?
A: Its mass density is 568.86 ± 0.76 kg/m3.

Q: And the mass density (360 K, 60000 kPa)?
A: Its mass density is 579.25 ± 0.88 kg/m3.

Q: And the mass density (360 K, 70000 kPa)?
A: The mass density was 588.53 ± 0.88 kg/m3.

Q: What about the mass density (360 K, 80000 kPa) of the same compound?
A: The mass density was 597.04 ± 0.88 kg/m3.

Q: And the mass density (360 K, 90000 kPa)?
A: The mass density was 604.5 ± 0.88 kg/m3.

Q: And the mass density (360 K, 100000 kPa)?
A: Its mass density is 611.74 ± 0.76 kg/m3.

Q: What about the mass density (360 K, 120000 kPa) of the same compound?
A: The mass density was 624.36 ± 0.76 kg/m3.

Q: What about the mass density (360 K, 140000 kPa) of the same compound?
A: Its mass density is 635.51 ± 0.76 kg/m3.

Q: And the mass density (360 K, 160000 kPa)?
A: Its mass density is 645.68 ± 0.76 kg/m3.

Q: What about the mass density (360 K, 180000 kPa) of the same compound?
A: Its mass density is 655.03 ± 0.76 kg/m3.

Q: What about the mass density (360 K, 200000 kPa) of the same compound?
A: The mass density was 663.47 ± 0.76 kg/m3.

Q: And the mass density (400 K, 50000 kPa)?
A: The mass density was 539.91 ± 0.88 kg/m3.

Q: And the mass density (400 K, 60000 kPa)?
A: Its mass density is 552.31 ± 0.88 kg/m3.

Q: What about the mass density (400 K, 70000 kPa) of the same compound?
A: Its mass density is 563.06 ± 0.88 kg/m3.

Q: What about the mass density (400 K, 80000 kPa) of the same compound?
A: Its mass density is 572.73 ± 0.88 kg/m3.

Q: What about the mass density (400 K, 90000 kPa) of the same compound?
A: Its mass density is 581.56 ± 0.88 kg/m3.

Q: What about the mass density (400 K, 100000 kPa) of the same compound?
A: The mass density was 589.43 ± 0.76 kg/m3.

Q: What about the mass density (400 K, 120000 kPa) of the same compound?
A: The mass density was 603.57 ± 0.76 kg/m3.

Q: And the mass density (400 K, 140000 kPa)?
A: The mass density was 615.95 ± 0.76 kg/m3.

Q: And the mass density (400 K, 160000 kPa)?
A: Its mass density is 627.09 ± 0.76 kg/m3.

Q: What about the mass density (400 K, 180000 kPa) of the same compound?
A: Its mass density is 637.21 ± 0.76 kg/m3.

Q: What about the mass density (400 K, 200000 kPa) of the same compound?
A: The mass density was 646.22 ± 0.76 kg/m3.

Q: And the mass density (440 K, 50000 kPa)?
A: Its mass density is 512.43 ± 0.76 kg/m3.

Q: And the mass density (440 K, 60000 kPa)?
A: Its mass density is 526.93 ± 0.76 kg/m3.

Q: What about the mass density (440 K, 70000 kPa) of the same compound?
A: The mass density was 539.33 ± 0.76 kg/m3.

Q: And the mass density (440 K, 80000 kPa)?
A: The mass density was 550.28 ± 0.76 kg/m3.

Q: What about the mass density (440 K, 90000 kPa) of the same compound?
A: Its mass density is 559.97 ± 0.76 kg/m3.

Q: And the mass density (440 K, 100000 kPa)?
A: The mass density was 568.96 ± 2.9 kg/m3.

Q: And the mass density (440 K, 120000 kPa)?
A: The mass density was 584.57 ± 2.9 kg/m3.

Q: And the mass density (440 K, 140000 kPa)?
A: Its mass density is 598.12 ± 2.9 kg/m3.

Q: And the mass density (440 K, 160000 kPa)?
A: Its mass density is 610.19 ± 2.9 kg/m3.

Q: What about the mass density (440 K, 180000 kPa) of the same compound?
A: Its mass density is 621.17 ± 2.9 kg/m3.

Q: And the mass density (440 K, 200000 kPa)?
A: Its mass density is 631.03 ± 2.9 kg/m3.

Q: And the mass density (500 K, 50000 kPa)?
A: Its mass density is 472.16 ± 0.76 kg/m3.

Q: What about the mass density (500 K, 60000 kPa) of the same compound?
A: Its mass density is 489.95 ± 0.76 kg/m3.

Q: And the mass density (500 K, 70000 kPa)?
A: The mass density was 504.87 ± 0.76 kg/m3.

Q: What about the mass density (500 K, 80000 kPa) of the same compound?
A: Its mass density is 517.77 ± 0.76 kg/m3.

Q: And the mass density (500 K, 90000 kPa)?
A: The mass density was 529.04 ± 0.76 kg/m3.

Q: What about the mass density (500 K, 100000 kPa) of the same compound?
A: Its mass density is 539.24 ± 2.9 kg/m3.

Q: And the mass density (500 K, 120000 kPa)?
A: The mass density was 557 ± 2.9 kg/m3.

Q: What about the mass density (500 K, 140000 kPa) of the same compound?
A: The mass density was 572.25 ± 2.9 kg/m3.

Q: And the mass density (500 K, 160000 kPa)?
A: Its mass density is 585.63 ± 2.9 kg/m3.

Q: And the mass density (500 K, 180000 kPa)?
A: Its mass density is 597.32 ± 2.9 kg/m3.

Q: And the mass density (500 K, 200000 kPa)?
A: The mass density was 607.94 ± 2.9 kg/m3.

Q: And the mass density (550 K, 50000 kPa)?
A: The mass density was 440.41 ± 0.76 kg/m3.

Q: And the mass density (550 K, 60000 kPa)?
A: The mass density was 460.74 ± 0.76 kg/m3.

Q: And the mass density (550 K, 70000 kPa)?
A: Its mass density is 477.5 ± 0.76 kg/m3.

Q: And the mass density (550 K, 80000 kPa)?
A: The mass density was 492.04 ± 0.76 kg/m3.

Q: What about the mass density (550 K, 90000 kPa) of the same compound?
A: The mass density was 504.6 ± 0.76 kg/m3.

Q: What about the mass density (550 K, 100000 kPa) of the same compound?
A: The mass density was 515.83 ± 2.9 kg/m3.

Q: What about the mass density (550 K, 120000 kPa) of the same compound?
A: The mass density was 535.44 ± 2.9 kg/m3.

Q: And the mass density (550 K, 140000 kPa)?
A: The mass density was 551.94 ± 2.9 kg/m3.

Q: And the mass density (550 K, 160000 kPa)?
A: Its mass density is 566.41 ± 2.9 kg/m3.

Q: And the mass density (550 K, 180000 kPa)?
A: Its mass density is 579.21 ± 2.9 kg/m3.

Q: And the mass density (550 K, 200000 kPa)?
A: Its mass density is 590.74 ± 2.9 kg/m3.

Q: What about the mass density (600 K, 50000 kPa) of the same compound?
A: Its mass density is 410.52 ± 0.76 kg/m3.

Q: What about the mass density (600 K, 60000 kPa) of the same compound?
A: Its mass density is 433.26 ± 0.76 kg/m3.

Q: What about the mass density (600 K, 70000 kPa) of the same compound?
A: Its mass density is 451.97 ± 0.76 kg/m3.

Q: What about the mass density (600 K, 80000 kPa) of the same compound?
A: The mass density was 467.84 ± 0.76 kg/m3.

Q: And the mass density (600 K, 90000 kPa)?
A: Its mass density is 481.73 ± 0.76 kg/m3.

Q: And the mass density (600 K, 100000 kPa)?
A: The mass density was 494.03 ± 2.9 kg/m3.

Q: What about the mass density (600 K, 120000 kPa) of the same compound?
A: Its mass density is 515.09 ± 2.9 kg/m3.

Q: And the mass density (600 K, 140000 kPa)?
A: Its mass density is 532.7 ± 2.9 kg/m3.

Q: And the mass density (600 K, 160000 kPa)?
A: Its mass density is 548.14 ± 2.9 kg/m3.

Q: And the mass density (600 K, 180000 kPa)?
A: The mass density was 561.73 ± 2.9 kg/m3.

Q: And the mass density (600 K, 200000 kPa)?
A: The mass density was 573.91 ± 2.9 kg/m3.
